Experimental data reported in publication PMC7163397 (Journal of the American Chemical Society, 2017).

What was measured:
E. faecium = test: DiBAC4 membrane depolarization on E. faecium; assay type: cell-based, Enterococcus faecium; conditions: deoxycholate as positive control
A. baumannii = test: DiBAC4 membrane depolarization on A. baumannii; assay type: cell-based, Acinetobacter baumannii; conditions: polymyxin as positive control
bacterial membrane = conditions: bacterium not stated; ref [6b],[13],[15]; cited from earlier work

With `C[C@H](CCC(=O)O)[C@H]1CC[C@H]2[C@@H]3CC[C@@H]4C[C@H](O)CC[C@]4(C)[C@H]3C[C@H](O)[C@]12C` [sodium deoxycholate] as the compound, how does the “Membrane depolarization (DiBAC4 fluorescence change)” value (E. faecium) read?
Its value is “rapidly enhanced DiBAC4 fluorescence”.

Which “Membrane depolarization (DiBAC4 fluorescence change)” value (A. baumannii) does the source give for polymyxin here?
The value was “rapidly enhanced DiBAC4 fluorescence”.

With tridecaptin as the compound, how does the “Membrane depolarization in DiBAC4 assay” value (bacterial membrane) read?
The value was “does not depolarize the membrane”.
